The source made the active and inactive calls. Rule as the data show it, for most assays here: actives have a measured Kd and inactives only a lower limit.
Key:
[1] = target: Platelet-derived growth factor receptor beta (Homo sapiens, UniProt P09619)
[2] = target: T1, Succinate--CoA ligase [ADP-forming] subunit beta, mitochondrial (Homo sapiens, UniProt Q9P2R7)
T1 sequence (Q9P2R7 whole entry): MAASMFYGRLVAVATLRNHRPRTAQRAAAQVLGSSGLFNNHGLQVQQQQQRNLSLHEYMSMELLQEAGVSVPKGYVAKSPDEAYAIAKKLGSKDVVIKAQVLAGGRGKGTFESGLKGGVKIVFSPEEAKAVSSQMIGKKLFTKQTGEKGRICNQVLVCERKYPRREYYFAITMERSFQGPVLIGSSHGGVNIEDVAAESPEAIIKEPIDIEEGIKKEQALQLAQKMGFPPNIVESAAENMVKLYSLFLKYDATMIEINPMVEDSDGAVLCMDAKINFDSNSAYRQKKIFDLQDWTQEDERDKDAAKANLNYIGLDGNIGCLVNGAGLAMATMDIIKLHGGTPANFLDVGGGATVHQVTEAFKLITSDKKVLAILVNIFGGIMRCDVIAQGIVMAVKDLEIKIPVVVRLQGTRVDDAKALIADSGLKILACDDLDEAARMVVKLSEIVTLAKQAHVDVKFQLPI

[3] = target: Serine/threonine-protein kinase PAK 2 (Homo sapiens, UniProt Q13177)
Sequence of Serine/threonine-protein kinase PAK 2 (Q13177 whole entry): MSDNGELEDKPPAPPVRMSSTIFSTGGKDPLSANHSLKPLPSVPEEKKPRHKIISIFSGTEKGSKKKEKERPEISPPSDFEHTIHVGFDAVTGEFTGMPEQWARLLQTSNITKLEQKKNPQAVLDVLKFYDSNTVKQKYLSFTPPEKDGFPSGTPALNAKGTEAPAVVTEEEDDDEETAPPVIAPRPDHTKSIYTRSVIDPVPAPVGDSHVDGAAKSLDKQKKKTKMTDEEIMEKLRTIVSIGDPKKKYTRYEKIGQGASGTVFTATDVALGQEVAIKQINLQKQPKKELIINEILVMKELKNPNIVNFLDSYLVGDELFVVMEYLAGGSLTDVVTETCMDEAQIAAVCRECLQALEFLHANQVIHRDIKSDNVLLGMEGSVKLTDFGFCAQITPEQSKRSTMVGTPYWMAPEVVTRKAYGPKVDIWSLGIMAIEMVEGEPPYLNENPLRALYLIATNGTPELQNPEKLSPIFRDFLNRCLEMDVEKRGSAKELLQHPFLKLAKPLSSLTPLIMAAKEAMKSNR

[4] = target: Casein kinase II subunit alpha' (Homo sapiens, UniProt P19784)
Sequence of Casein kinase II subunit alpha' (P19784 whole entry): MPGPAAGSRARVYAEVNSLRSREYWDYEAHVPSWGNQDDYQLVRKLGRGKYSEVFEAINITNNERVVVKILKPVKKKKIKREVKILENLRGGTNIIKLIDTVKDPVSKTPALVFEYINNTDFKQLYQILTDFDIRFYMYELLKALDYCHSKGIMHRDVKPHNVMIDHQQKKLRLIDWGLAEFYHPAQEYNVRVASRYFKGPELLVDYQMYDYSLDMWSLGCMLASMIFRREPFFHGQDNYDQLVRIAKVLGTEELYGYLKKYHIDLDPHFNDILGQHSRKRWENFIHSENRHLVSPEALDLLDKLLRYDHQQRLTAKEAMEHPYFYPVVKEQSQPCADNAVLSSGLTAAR

Adenosine kinase = Adenosine kinase (Homo sapiens, UniProt P55263)
Sequence of Adenosine kinase (P55263 whole entry): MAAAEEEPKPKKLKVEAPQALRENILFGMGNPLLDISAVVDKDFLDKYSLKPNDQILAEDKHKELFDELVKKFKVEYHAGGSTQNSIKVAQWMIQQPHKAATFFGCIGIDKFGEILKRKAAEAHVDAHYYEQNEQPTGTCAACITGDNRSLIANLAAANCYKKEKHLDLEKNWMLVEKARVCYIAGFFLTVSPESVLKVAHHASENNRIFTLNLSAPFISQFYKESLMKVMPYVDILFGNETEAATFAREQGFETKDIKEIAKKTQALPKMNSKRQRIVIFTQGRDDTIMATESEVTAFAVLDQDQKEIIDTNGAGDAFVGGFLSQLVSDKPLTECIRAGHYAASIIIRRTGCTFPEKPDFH

[5] = target: Mitogen-activated protein kinase kinase kinase 1 (Homo sapiens, UniProt Q13233)
Sequence of Mitogen-activated protein kinase kinase kinase 1 (Q13233 whole entry): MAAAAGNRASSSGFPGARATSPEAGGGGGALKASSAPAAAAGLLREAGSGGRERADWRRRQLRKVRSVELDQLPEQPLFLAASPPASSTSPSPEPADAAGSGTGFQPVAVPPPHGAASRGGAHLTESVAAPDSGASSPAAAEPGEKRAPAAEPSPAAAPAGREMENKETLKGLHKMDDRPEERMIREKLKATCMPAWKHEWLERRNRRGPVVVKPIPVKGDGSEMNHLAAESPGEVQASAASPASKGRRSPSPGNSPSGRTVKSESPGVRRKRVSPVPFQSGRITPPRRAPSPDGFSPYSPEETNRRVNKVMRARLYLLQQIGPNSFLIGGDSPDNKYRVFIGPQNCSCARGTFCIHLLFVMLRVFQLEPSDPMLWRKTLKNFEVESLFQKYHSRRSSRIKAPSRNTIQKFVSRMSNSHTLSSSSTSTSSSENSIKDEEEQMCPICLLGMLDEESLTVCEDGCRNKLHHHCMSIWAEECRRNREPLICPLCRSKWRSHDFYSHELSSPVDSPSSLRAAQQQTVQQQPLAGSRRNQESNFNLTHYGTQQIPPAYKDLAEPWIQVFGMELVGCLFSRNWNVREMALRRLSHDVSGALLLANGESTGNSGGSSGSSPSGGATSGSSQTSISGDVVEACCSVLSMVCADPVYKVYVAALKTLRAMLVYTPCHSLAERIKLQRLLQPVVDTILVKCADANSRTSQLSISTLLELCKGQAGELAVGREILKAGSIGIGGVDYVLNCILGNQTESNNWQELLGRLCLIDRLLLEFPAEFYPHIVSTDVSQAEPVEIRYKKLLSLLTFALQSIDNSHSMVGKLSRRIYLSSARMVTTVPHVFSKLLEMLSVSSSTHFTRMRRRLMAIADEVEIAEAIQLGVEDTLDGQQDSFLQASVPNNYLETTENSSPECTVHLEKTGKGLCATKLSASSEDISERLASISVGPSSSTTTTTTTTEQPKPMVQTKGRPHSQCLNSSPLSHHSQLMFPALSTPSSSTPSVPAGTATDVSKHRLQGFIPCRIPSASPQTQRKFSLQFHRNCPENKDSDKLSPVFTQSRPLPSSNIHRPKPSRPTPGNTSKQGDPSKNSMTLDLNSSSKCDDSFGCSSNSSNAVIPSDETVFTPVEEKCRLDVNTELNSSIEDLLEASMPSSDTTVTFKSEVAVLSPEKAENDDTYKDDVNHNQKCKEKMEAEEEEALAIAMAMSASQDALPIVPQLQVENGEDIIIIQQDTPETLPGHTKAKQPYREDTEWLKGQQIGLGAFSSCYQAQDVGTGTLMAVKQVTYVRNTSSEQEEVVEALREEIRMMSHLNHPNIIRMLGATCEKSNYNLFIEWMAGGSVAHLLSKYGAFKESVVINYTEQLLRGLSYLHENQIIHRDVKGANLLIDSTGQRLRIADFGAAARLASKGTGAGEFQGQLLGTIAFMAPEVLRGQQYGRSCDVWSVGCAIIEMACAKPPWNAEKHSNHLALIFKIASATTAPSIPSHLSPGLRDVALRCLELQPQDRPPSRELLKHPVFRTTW

[6] = target: Cyclin-dependent kinase 1 (Homo sapiens, UniProt P06493)
[7] = target: Tyrosine-protein kinase BTK (Homo sapiens, UniProt Q06187)
Sequence of Tyrosine-protein kinase BTK (Q06187 whole entry): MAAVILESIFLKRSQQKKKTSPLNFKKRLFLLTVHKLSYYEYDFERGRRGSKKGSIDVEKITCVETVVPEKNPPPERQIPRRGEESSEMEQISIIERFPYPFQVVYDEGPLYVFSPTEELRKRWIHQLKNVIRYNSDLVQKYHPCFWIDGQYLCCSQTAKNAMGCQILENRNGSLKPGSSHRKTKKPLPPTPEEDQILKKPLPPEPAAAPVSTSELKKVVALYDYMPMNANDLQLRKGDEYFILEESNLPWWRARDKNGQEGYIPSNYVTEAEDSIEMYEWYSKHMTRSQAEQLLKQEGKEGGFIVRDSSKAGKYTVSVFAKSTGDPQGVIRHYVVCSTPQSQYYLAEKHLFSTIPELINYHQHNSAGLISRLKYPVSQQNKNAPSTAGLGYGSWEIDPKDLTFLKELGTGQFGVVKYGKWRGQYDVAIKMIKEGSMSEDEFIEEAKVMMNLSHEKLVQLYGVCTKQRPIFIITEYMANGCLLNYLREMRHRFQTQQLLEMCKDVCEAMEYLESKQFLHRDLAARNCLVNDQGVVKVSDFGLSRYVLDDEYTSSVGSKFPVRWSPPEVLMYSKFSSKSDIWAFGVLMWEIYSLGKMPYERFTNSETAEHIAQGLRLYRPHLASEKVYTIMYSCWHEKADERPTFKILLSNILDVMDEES

[8] = target: Mitogen-activated protein kinase kinase kinase kinase 1 (Homo sapiens, UniProt Q92918)
[9] = target: Tyrosine-protein kinase SYK (Homo sapiens, UniProt P43405)
[10] = target: T2, RNA cytidine acetyltransferase (Homo sapiens, UniProt Q9H0A0)
T2 sequence (Q9H0A0 whole entry): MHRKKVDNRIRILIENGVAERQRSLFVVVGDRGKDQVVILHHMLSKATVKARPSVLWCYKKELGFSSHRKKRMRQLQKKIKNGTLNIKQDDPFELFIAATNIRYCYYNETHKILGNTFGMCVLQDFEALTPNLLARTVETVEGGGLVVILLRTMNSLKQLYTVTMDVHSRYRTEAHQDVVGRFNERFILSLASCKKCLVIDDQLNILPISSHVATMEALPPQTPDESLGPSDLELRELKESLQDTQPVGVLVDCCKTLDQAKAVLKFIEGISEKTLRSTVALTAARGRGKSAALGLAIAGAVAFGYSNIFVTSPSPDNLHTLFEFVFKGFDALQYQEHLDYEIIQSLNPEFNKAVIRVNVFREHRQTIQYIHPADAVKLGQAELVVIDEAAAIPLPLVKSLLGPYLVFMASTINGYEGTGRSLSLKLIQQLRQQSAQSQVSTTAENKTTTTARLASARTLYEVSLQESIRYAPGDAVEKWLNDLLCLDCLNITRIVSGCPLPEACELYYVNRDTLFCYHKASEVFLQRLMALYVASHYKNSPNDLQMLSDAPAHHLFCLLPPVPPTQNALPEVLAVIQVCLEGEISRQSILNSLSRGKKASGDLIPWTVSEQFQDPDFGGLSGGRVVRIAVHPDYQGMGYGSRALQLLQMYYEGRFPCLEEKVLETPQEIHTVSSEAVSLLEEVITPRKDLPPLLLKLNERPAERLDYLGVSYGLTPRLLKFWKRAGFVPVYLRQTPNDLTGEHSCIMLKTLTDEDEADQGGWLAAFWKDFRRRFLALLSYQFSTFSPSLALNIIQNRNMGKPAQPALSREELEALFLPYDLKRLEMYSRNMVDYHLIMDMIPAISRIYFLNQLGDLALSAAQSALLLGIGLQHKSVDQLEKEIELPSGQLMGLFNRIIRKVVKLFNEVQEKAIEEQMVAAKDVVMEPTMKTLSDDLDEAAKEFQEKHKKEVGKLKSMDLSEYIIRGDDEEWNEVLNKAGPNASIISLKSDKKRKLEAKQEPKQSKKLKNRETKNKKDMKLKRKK

[11] = target: T3, Serine/threonine-protein kinase 3 (Homo sapiens, UniProt Q13188)
T3 sequence (Q13188 whole entry): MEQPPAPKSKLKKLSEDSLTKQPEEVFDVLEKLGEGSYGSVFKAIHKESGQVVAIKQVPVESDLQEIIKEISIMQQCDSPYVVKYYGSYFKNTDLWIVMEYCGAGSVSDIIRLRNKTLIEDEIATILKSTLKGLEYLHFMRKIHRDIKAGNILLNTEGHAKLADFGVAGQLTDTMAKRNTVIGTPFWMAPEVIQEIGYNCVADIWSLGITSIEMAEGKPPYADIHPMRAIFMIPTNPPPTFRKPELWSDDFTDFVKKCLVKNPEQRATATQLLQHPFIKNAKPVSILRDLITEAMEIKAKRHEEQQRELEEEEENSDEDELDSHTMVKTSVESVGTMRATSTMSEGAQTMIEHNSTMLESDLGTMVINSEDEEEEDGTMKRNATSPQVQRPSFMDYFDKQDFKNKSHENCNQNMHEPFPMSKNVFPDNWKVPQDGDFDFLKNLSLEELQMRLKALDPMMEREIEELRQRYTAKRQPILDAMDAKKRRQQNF

[12] = target: Eukaryotic translation initiation factor 2-alpha kinase 1 (Homo sapiens, UniProt Q9BQI3)
[13] = target: Mitogen-activated protein kinase kinase kinase 4 (Homo sapiens, UniProt Q9Y6R4)
Sequence of Mitogen-activated protein kinase kinase kinase 4 (Q9Y6R4 whole entry): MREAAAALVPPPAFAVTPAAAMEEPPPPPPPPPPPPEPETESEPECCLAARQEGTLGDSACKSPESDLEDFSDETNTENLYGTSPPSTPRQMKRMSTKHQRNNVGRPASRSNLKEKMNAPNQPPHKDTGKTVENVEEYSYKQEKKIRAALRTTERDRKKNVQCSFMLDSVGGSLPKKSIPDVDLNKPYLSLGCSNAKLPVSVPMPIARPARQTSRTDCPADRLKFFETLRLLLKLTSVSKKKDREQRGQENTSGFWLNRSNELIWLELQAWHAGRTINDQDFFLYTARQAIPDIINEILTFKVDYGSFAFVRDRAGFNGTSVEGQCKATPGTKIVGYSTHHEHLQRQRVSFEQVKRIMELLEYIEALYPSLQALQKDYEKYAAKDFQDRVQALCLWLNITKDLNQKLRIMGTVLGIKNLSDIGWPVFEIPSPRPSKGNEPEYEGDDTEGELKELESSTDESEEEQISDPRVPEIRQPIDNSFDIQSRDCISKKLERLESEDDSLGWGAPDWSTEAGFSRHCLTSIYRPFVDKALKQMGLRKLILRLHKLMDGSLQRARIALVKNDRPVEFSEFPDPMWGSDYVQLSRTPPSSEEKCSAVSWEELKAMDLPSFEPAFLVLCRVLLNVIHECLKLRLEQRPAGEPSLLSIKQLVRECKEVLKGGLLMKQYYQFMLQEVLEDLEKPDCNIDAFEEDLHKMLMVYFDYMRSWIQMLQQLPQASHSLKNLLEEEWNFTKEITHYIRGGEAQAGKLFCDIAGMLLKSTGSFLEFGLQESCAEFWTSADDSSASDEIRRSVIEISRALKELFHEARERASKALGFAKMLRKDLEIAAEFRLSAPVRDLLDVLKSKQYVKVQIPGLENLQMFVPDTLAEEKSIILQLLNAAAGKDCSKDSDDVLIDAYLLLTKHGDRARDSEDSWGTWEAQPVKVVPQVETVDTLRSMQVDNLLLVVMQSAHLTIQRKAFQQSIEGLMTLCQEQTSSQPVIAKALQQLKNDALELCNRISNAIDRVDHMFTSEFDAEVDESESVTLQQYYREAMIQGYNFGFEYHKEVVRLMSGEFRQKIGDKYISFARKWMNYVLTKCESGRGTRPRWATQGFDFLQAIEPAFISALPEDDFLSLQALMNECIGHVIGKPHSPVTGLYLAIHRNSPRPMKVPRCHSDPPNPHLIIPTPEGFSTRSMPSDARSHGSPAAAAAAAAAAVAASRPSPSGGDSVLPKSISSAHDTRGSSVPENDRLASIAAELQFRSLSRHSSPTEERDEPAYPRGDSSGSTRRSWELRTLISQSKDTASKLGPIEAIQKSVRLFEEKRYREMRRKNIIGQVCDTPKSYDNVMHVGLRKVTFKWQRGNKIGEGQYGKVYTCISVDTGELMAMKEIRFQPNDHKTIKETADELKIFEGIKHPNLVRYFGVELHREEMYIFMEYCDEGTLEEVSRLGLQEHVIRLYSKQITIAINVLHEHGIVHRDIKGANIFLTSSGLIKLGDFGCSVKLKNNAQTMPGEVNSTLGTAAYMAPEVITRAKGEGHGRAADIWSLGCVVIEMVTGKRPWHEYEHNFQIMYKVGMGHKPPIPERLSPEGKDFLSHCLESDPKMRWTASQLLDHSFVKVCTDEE
Also: in the data inactive means no Kd found up to 30 µM.

| Structure (SMILES) | Kd [1] | Kd [2] | Kd [3] | Kd [4] | Kd (Adenosine kinase) | Kd [5] | Kd [6] | Kd [7] | Kd [8] | Kd [9] | Kd [10] | Kd [11] | Kd [12] | Kd [13] |
| --- | --- | --- | --- | --- | --- | --- | --- | --- | --- | --- | --- | --- | --- | --- |
| COc1cc2nccc(Oc3ccc(NC(=O)C4(C(=O)Nc5ccc(F)cc5)CC4)cc3)c2cc1OC [CABOZANTINIB] | > 30 µM (inactive) | > 30 µM (inactive) | > 30 µM (inactive) | > 30 µM (inactive) | > 30 µM (inactive) | > 30 µM (inactive) | > 30 µM (inactive) | > 30 µM (inactive) | > 30 µM (inactive) | > 30 µM (inactive) | > 30 µM (inactive) | > 30 µM (inactive) | > 30 µM (inactive) | > 30 µM (inactive) |
| COc1cc2ncnc3c2cc1OCCCCCN(C)Cc1ccc(Br)cc1N3 [JNJ-26483327] | > 30 µM (inactive) | > 30 µM (inactive) | > 30 µM (inactive) | > 30 µM (inactive) | > 30 µM (inactive) | > 30 µM (inactive) | > 30 µM (inactive) | > 30 µM (inactive) | > 30 µM (inactive) | > 30 µM (inactive) | > 30 µM (inactive) | > 30 µM (inactive) | > 30 µM (inactive) | > 30 µM (inactive) |
| CCc1cc2c(cc1N1CCC(N3CCOCC3)CC1)C(C)(C)c1[nH]c3cc(C#N)ccc3c1C2=O [ALECTINIB] | > 30 µM (inactive) | > 30 µM (inactive) | > 30 µM (inactive) | > 30 µM (inactive) | > 30 µM (inactive) | > 30 µM (inactive) | > 30 µM (inactive) | > 30 µM (inactive) | > 30 µM (inactive) | > 30 µM (inactive) | > 30 µM (inactive) | > 30 µM (inactive) | > 30 µM (inactive) | > 30 µM (inactive) |
| CNC(=O)c1cccc(-c2ccc3c(N4CCOC[C@@H]4C)nc(N4CCOC[C@@H]4C)nc3n2)c1 [VISTUSERTIB] | > 30 µM (inactive) | > 30 µM (inactive) | > 30 µM (inactive) | > 30 µM (inactive) | > 30 µM (inactive) | > 30 µM (inactive) | > 30 µM (inactive) | > 30 µM (inactive) | > 30 µM (inactive) | > 30 µM (inactive) | > 30 µM (inactive) | > 30 µM (inactive) | > 30 µM (inactive) | > 30 µM (inactive) |
| CNC(=O)c1cc(COc2nnc(Nc3ccc(Cl)cc3)c3ccoc23)ccn1 [TELATINIB] | 0.555 µM (active) | > 30 µM (inactive) | > 30 µM (inactive) | > 30 µM (inactive) | > 30 µM (inactive) | > 30 µM (inactive) | > 30 µM (inactive) | > 30 µM (inactive) | > 30 µM (inactive) | > 30 µM (inactive) | > 30 µM (inactive) | > 30 µM (inactive) | > 30 µM (inactive) | > 30 µM (inactive) |
| Cn1c(=O)c(F)c(Nc2ccc(I)cc2F)c2c(=O)n(C[C@@H](O)CO)cnc21 [TAK-733] | > 30 µM (inactive) | > 30 µM (inactive) | > 30 µM (inactive) | > 30 µM (inactive) | > 30 µM (inactive) | > 30 µM (inactive) | > 30 µM (inactive) | > 30 µM (inactive) | > 30 µM (inactive) | > 30 µM (inactive) | > 30 µM (inactive) | > 30 µM (inactive) | > 30 µM (inactive) | > 30 µM (inactive) |
| CC[C@@](C)(Nc1ccnc(-c2c[nH]c3ncccc23)n1)C(=O)NCC(F)(F)F [DECERNOTINIB] | > 30 µM (inactive) | > 30 µM (inactive) | > 30 µM (inactive) | 3.23 µM (active) | > 30 µM (inactive) | > 30 µM (inactive) | > 30 µM (inactive) | > 30 µM (inactive) | > 30 µM (inactive) | > 30 µM (inactive) | > 30 µM (inactive) | > 30 µM (inactive) | > 30 µM (inactive) | > 30 µM (inactive) |
| O=C(NOC[C@H](O)CO)c1ccc(F)c(F)c1Nc1ccc(I)cc1F [MIRDAMETINIB] | > 30 µM (inactive) | – | > 30 µM (inactive) | > 30 µM (inactive) | > 30 µM (inactive) | > 30 µM (inactive) | > 30 µM (inactive) | > 30 µM (inactive) | > 30 µM (inactive) | > 30 µM (inactive) | > 30 µM (inactive) | > 30 µM (inactive) | > 30 µM (inactive) | > 30 µM (inactive) |
| CNC(=O)c1ccc(Nc2ncc(C(F)(F)F)c(NCc3nccnc3N(C)S(C)(=O)=O)n2)cc1 [DEFACTINIB] | > 30 µM (inactive) | > 30 µM (inactive) | > 30 µM (inactive) | 1.2 µM (active) | – | > 30 µM (inactive) | 2.01 µM | > 30 µM (inactive) | 3.13 µM (active) | > 30 µM (inactive) | > 30 µM (inactive) | 4.95 µM (active) | > 30 µM (inactive) | > 30 µM (inactive) |
| Cn1cc(-c2[nH]c3cc(NC(=O)[C@H](N)C4CCCCC4)cc4c3c2C=NNC4=O)cn1 | 0.1 µM (active) | > 30 µM (inactive) | > 30 µM (inactive) | 14.8 µM (active) | > 30 µM (inactive) | – | > 30 µM (inactive) | 2.84 µM (active) | > 30 µM (inactive) | > 30 µM (inactive) | > 30 µM (inactive) | > 30 µM (inactive) | > 30 µM (inactive) | > 30 µM (inactive) |
| CCN1CCN(Cc2ccc(Nc3ncc(F)c(-c4cc(F)c5nc(C)n(C(C)C)c5c4)n3)nc2)CC1 [ABEMACICLIB] | > 30 µM (inactive) | > 30 µM (inactive) | > 30 µM (inactive) | 0.019 µM (active) | > 30 µM (inactive) | > 30 µM (inactive) | – | > 30 µM (inactive) | > 30 µM (inactive) | > 30 µM (inactive) | > 30 µM (inactive) | > 30 µM (inactive) | 4.84 µM (active) | > 30 µM (inactive) |
| c1cc(OCCN2CCCCC2)cc(-c2n[nH]c3ccc(-c4nc[nH]n4)cc23)c1 [CC-401] | > 30 µM (inactive) | – | > 30 µM (inactive) | 0.584 µM (active) | > 30 µM (inactive) | > 30 µM (inactive) | > 30 µM (inactive) | > 30 µM (inactive) | > 30 µM (inactive) | > 30 µM (inactive) | > 30 µM (inactive) | > 30 µM (inactive) | > 30 µM (inactive) | > 30 µM (inactive) |

Reference: ChEMBL document CHEMBL3991601, “The target landscape of clinical kinase drugs” (Science, 2017)
